The record followed here is patent US5599925A, “Penam derivatives” (Otsuka Kagaku Kabushiki Kaisha, priority 1991, dated 1997).

Holding throughout (assay): in vitro antibacterial potency test, doubling dilution agar plate method
Common to all, as to type: cell-based

The test system of assay [1] is Escherichia coli NIHJ-JC2. To be noted: NIHJJC2, 20 hours at 37° C., inoculum 0.005 ml of ca. 10^8 /ml, read-out: minimal inhibitory concentration (MIC). The protocol:
(§1) Using compound (1a-i), an in vitro antibacterial potency test was performed by the doubling dilution agar plate method. Each test strain was cultured in a sensitivity assay bouillon for 20 hours and 0.005 ml of the culture (viable cell count: ca. 10^8 /ml) was inoculated on a sensitivity assay agar medium containing a varying concentration of the antibacterial compound.
(§2) After 20 hours of incubation at 37° C., the minimal inhibitory concentration (MIC) was determined and expressed in units of μg/ml.

Another assay deals with Proteus vulgaris. Particulars: 20 hours at 37° C., inoculum 0.005 ml of ca. 10^8 /ml, read-out: minimal inhibitory concentration (MIC). On the procedure:
as §1, §2

The subject of another assay is Pseudomonas aeruginosa. Particulars: 20 hours at 37° C., inoculum 0.005 ml of ca. 10^8 /ml, read-out: minimal inhibitory concentration (MIC). The protocol:
as §1, §2

For a further assay, the system named is Serratia marcescens. Particulars: 20 hours at 37° C., inoculum 0.005 ml of ca. 10^8 /ml, read-out: minimal inhibitory concentration (MIC). On the procedure:
as §1, §2

Assay [2] deals with Staphylococcus aureus 209P. To be noted: 20 hours at 37° C., inoculum 0.005 ml of ca. 10^8 /ml, read-out: minimal inhibitory concentration (MIC). The protocol: as §1, §2
Assay [3] has as its system Staphylococcus aureus, methicillin-resistant. Particulars: 20 hours at 37° C., inoculum 0.005 ml of ca. 10^8 /ml, read-out: minimal inhibitory concentration (MIC). On the procedure:
as §1, §2

Converted amounts (≈) assume the structure as drawn.

With `COC(=O)CCSCC1SC2C(NC(=O)Cc3ccccc3)C(=O)N2C1C(=O)O` (stereo not drawn) [compound (1a-i)], the MIC in assay [1] stood at 12.5 µg/mL (≈ 28.5 µM); in the assay with Proteus vulgaris, 0.39 µg/mL (≈ 0.889 µM); in the assay with Pseudomonas aeruginosa, 100 µg/mL (≈ 228 µM); in the assay on Serratia marcescens, 12.5 µg/mL (≈ 28.5 µM); in assay [2], 0.1 µg/mL (≈ 0.228 µM); in assay [3], 100 µg/mL (≈ 228 µM).
